From patent US7138361B2, “Herbicidal heterocycles” (E. I. du Pont de Nemours and Company, priority 2000, dated 2006)

Assays:
Assay type in all cases: in vivo
[1] = system: smallflower flatsedge (Cyperus difformis); experiment: Test C flooded paddy test; conditions: for Flatsedge plant response rating: Flooded Paddy, scale 0 to 100, 0 no effect, 100 complete control; for Plant response rating, Flatsedge / Plant response rating (scale 0 to 100), Flatsedge: flooded paddy test; for Plant response rating, Flatsedge: scale 0 to 100 (0 no effect, 100 complete control)
Summary of the method: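 Plants were grown to the 2-leaf stage under flooded paddy conditions and treated. They were then kept in a greenhouse for 12 to 14 days and visually rated against untreated controls on a 0–100 scale, where 0 is no effect and 100 is complete control.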

[2] = system: Nightshade; experiment: Test C preemergence; conditions: Rate 250 g/ha, visual evaluation after 12 to 14 days
[3] = system: Sunflower; experiment: Test C preemergence; conditions: Rate 250 g/ha, visual evaluation after 12 to 14 days
[4] = system: lambsquarters (Chenopodium album); experiment: Test B preemergence; conditions: scale 0 to 100, 0 no effect, 100 complete control
Summary of the method: (§1)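 Visual injury scores, 0 = no effect to 100 = complete control, assigned against controls after 13 to 15 days in the greenhouse. Compounds formulated in non-phytotoxic solvent plus surfactant and applied to soil after planting (pre) or onto foliage of 1- to 4-leaf plants (post).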

[5] = system: barnyardgrass (Echinochloa crus-galli); experiment: Test B preemergence; conditions: scale 0 to 100, 0 no effect, 100 complete control
Summary of the method: as §1

[6] = system: velvetleaf (Abutilon theophrasti); experiment: Test B preemergence; conditions: Preemergence, Rate 500 g/ha; scale 0 to 100, 0 no effect, 100 complete control
Summary of the method: as §1

[7] = system: Surinam grass (Brachiaria decumbens); experiment: Test B preemergence; conditions: scale 0 to 100, 0 no effect, 100 complete control
Summary of the method: as §1

[8] = system: rice (Oryza saliva); experiment: Test B preemergence; conditions: Preemergence, Rate 500 g/ha; scale 0 to 100, 0 no effect, 100 complete control
Summary of the method: as §1

[9] = system: pigweed (Amaranthus retroflexus); experiment: Test B preemergence; conditions: Preemergence, Rate 500 g/ha; scale 0 to 100, 0 no effect, 100 complete control
Summary of the method: as §1

[10] = system: crabgrass (Digitaria sanguinalis); experiment: Test B preemergence; conditions: scale 0 to 100, 0 no effect, 100 complete control
Summary of the method: as §1

[11] = system: cocklebur (Xanthium strumarium); experiment: Test B preemergence; conditions: scale 0 to 100, 0 no effect, 100 complete control
Summary of the method: as §1

[12] = system: corn (Zea mays); experiment: Test B preemergence; conditions: scale 0 to 100, 0 no effect, 100 complete control
Summary of the method: as §1

[13] = system: giant foxtail (Setaria faberii); experiment: Test B preemergence; conditions: scale 0 to 100, 0 no effect, 100 complete control
Summary of the method: as §1

[14] = system: morning glory (Ipomoea hederacea); experiment: Test B preemergence; conditions: Preemergence, Rate 500 g/ha; scale 0 to 100, 0 no effect, 100 complete control
Summary of the method: as §1

[15] = system: lambsquarters (Chenopodium album); experiment: Test B postemergence; conditions: 13 to 15 days
Summary of the method: as §1

[16] = system: wheat (Triticum aestivum); experiment: Test B postemergence; conditions: 13 to 15 days
Summary of the method: as §1

[17] = system: barnyardgrass (Echinochloa crus-galli); experiment: Test B postemergence; conditions: 13 to 15 days
Summary of the method: as §1

[18] = system: velvetleaf (Abutilon theophrasti); experiment: Test B postemergence; conditions: 13 to 15 days
Summary of the method: as §1

[19] = system: Surinam grass (Brachiaria decumbens); experiment: Test B postemergence; conditions: 13 to 15 days
Summary of the method: as §1

[20] = system: wild oat (Avena fatua); experiment: Test B postemergence; conditions: 13 to 15 days
Summary of the method: as §1

[21] = system: pigweed (Amaranthus retroflexus); experiment: Test B postemergence; conditions: 13 to 15 days
Summary of the method: as §1

[22] = system: blackgrass (Alopecurus myosuroides); experiment: Test B postemergence; conditions: 13 to 15 days
Summary of the method: as §1

[23] = system: crabgrass (Digitaria sanguinalis); experiment: Test B postemergence; conditions: 13 to 15 days
Summary of the method: as §1

[24] = system: cocklebur (Xanthium strumarium); experiment: Test B postemergence; conditions: 13 to 15 days
Summary of the method: as §1

[25] = system: corn (Zea mays); experiment: Test B postemergence; conditions: 13 to 15 days
Summary of the method: as §1

[26] = system: giant foxtail (Setaria faberii); experiment: Test B postemergence; conditions: 13 to 15 days
Summary of the method: as §1

[27] = system: morning glory (Ipomoea hederacea); experiment: Test B postemergence; conditions: 13 to 15 days
Summary of the method: as §1

[28] = Rate 125 g/ha, scale 0 (no effect) to 100 (complete control)
[29] = Rate 500 g/ha, scale 0 to 100, 0 is no effect, 100 is complete control

In the case of O=C1C(n2ccc(C3CC3)n2)OCN1c1cccc(C(F)(F)F)c1 (stereo not drawn) [Compound 28], the “Flatsedge plant response rating” value ([1]; Rate 250 g/ha) is reported as 100, the “Flatsedge plant response rating” value ([1]; Rate 500 g/ha) is reported as 100 and the “Plant response rating, Flatsedge” value ([1]; Rate 62 g/ha) is reported as 80. The “Plant response rating, Flatsedge” value ([1]; Rate 125 g/ha) was 80, the “Plant response rating (0 to 100), Nightshade” value [2] was 90 and the “Plant response rating (0 to 100), Sunflower” value [3] was 40. The “Plant response rating, Lambsquarters” value ([4]; Preemergence, Rate 500 g/ha) was 100, the “Plant response rating, Lambsquarters” value ([4]; preemergence, Rate 125 g/ha) was 100 and the “Plant response rating, Barnyardgrass” value ([5]; Preemergence, Rate 500 g/ha) was 100. The “Plant response rating, Barnyardgrass” value ([5]; preemergence, Rate 125 g/ha) was 50, the “Plant response rating, Velvetleaf” value [6] was 0 and the “Plant response rating, Surinam grass” value ([7]; Preemergence, Rate 500 g/ha) was 70. The “Plant response rating, Surinam grass” value ([7]; preemergence, Rate 125 g/ha) was 0, the “Plant response rating, Rice” value [8] was 40 and the “Plant response rating, Pigweed” value [9] was 100. The “Plant response rating, Crabgrass” value ([10]; Preemergence, Rate 500 g/ha) was 100, the “Plant response rating, Crabgrass” value ([10]; preemergence, Rate 125 g/ha) was 20 and the “Plant response rating, Cocklebur” value ([11]; Preemergence, Rate 500 g/ha) was 100. For the same compound, the “Plant response rating, Cocklebur” value ([11]; preemergence, Rate 125 g/ha) was 0, the “Plant response rating, Corn” value ([12]; Preemergence, Rate 500 g/ha) was 0 and the “Plant response rating, Corn” value ([12]; preemergence, Rate 125 g/ha) was 0. The “Plant response rating, Foxtail, Giant” value ([13]; Preemergence, Rate 500 g/ha) was 100, the “Plant response rating, Foxtail, Giant” value ([13]; preemergence, Rate 125 g/ha) was 20 and the “Plant response rating, Morningglory” value [14] was 0. For the same compound, the “Plant response rating, Lambsquarters” value [15, 28] was 60, the “Plant response rating, Lambsquarters” value [15, 29] was 70 and the “Plant response rating, Wheat” value [16, 28] was 0. For the same compound, the “Plant response rating, Wheat” value [16, 29] was 0, the “Plant response rating, Barnyardgrass” value [17, 28] was 0 and the “Plant response rating, Barnyardgrass” value [17, 29] was 60. The “Plant response rating, Velvetleaf” value [18, 28] was 0, the “Plant response rating, Velvetleaf” value [18, 29] was 0 and the “Plant response rating, Surinam grass” value [19, 28] was 0. The “Plant response rating, Surinam grass” value [19, 29] was 0, the “Plant response rating, Wild Oat” value [20, 28] was 0 and the “Plant response rating, Wild Oat” value [20, 29] was 0. The “Plant response rating, Pigweed” value [21, 28] was 30, the “Plant response rating, Pigweed” value [21, 29] was 30 and the “Plant response rating, Blackgrass” value [22, 28] was 0. The “Plant response rating, Blackgrass” value [22, 29] was 0, the “Plant response rating, Crabgrass” value [23, 28] was 20 and the “Plant response rating, Crabgrass” value [23, 29] was 30. The “Plant response rating, Cocklebur” value [24, 28] was 0, the “Plant response rating, Cocklebur” value [24, 29] was 0 and the “Plant response rating, Corn” value [25, 28] was 0. For the same compound, the “Plant response rating, Corn” value [25, 29] was 0, the “Plant response rating, Foxtail, Giant” value [26, 28] was 0 and the “Plant response rating, Foxtail, Giant” value [26, 29] was 30. For the same compound, the “Plant response rating, Morningglory” value [27, 28] was 0 and the “Plant response rating, Morningglory” value [27, 29] was 0.
In the case of CC(C)(C)c1ccn(C2SCN(c3cccc(OC(F)(F)F)c3)C2=O)n1 (stereo not drawn) [Compound 30], the “Flatsedge plant response rating” value ([1]; Rate 250 g/ha) is reported as 100, the “Flatsedge plant response rating” value ([1]; Rate 500 g/ha) is reported as 100 and the “Plant response rating, Flatsedge” value ([1]; Rate 62 g/ha) is reported as 90. For the same compound, the “Plant response rating, Flatsedge” value ([1]; Rate 125 g/ha) was 100, the “Plant response rating (scale 0 to 100), Flatsedge” value ([1]; Rate 16 g/ha, visually evaluated after 12 to 14 days, 0 = no effect, 100 = complete control) was 90 and the “Plant response rating (scale 0 to 100), Flatsedge” value ([1]; under head Rate 16 g/ha, (own rate not given), after 12 to 14 days) was 90. The “Plant response rating (0 to 100), Nightshade” value [2] was 100, the “Plant response rating (0 to 100), Sunflower” value [3] was 80 and the “Plant response rating, Lambsquarters” value ([4]; Preemergence, Rate 500 g/ha) was 100. For the same compound, the “Plant response rating, Lambsquarters” value ([4]; preemergence, Rate 125 g/ha) was 100, the “Plant response rating, Barnyardgrass” value ([5]; Preemergence, Rate 500 g/ha) was 100 and the “Plant response rating, Barnyardgrass” value ([5]; preemergence, Rate 125 g/ha) was 40. For the same compound, the “Plant response rating, Velvetleaf” value [6] was 40, the “Plant response rating, Surinam grass” value ([7]; Preemergence, Rate 500 g/ha) was 60 and the “Plant response rating, Surinam grass” value ([7]; preemergence, Rate 125 g/ha) was 40. For the same compound, the “Plant response rating, Rice” value [8] was 0, the “Plant response rating, Pigweed” value [9] was 100 and the “Plant response rating, Crabgrass” value ([10]; Preemergence, Rate 500 g/ha) was 100. For the same compound, the “Plant response rating, Crabgrass” value ([10]; preemergence, Rate 125 g/ha) was 20, the “Plant response rating, Cocklebur” value ([11]; Preemergence, Rate 500 g/ha) was 90 and the “Plant response rating, Cocklebur” value ([11]; preemergence, Rate 125 g/ha) was 0. The “Plant response rating, Corn” value ([12]; Preemergence, Rate 500 g/ha) was 0, the “Plant response rating, Corn” value ([12]; preemergence, Rate 125 g/ha) was 0 and the “Plant response rating, Foxtail, Giant” value ([13]; Preemergence, Rate 500 g/ha) was 100. The “Plant response rating, Foxtail, Giant” value ([13]; preemergence, Rate 125 g/ha) was 70, the “Plant response rating, Morningglory” value [14] was 90 and the “Plant response rating, Lambsquarters” value [15, 28] was 90. For the same compound, the “Plant response rating, Lambsquarters” value [15, 29] was 90, the “Plant response rating, Wheat” value [16, 28] was 0 and the “Plant response rating, Wheat” value [16, 29] was 0. The “Plant response rating, Barnyardgrass” value [17, 28] was 100, the “Plant response rating, Barnyardgrass” value [17, 29] was 100 and the “Plant response rating, Velvetleaf” value [18, 28] was 0. For the same compound, the “Plant response rating, Velvetleaf” value [18, 29] was 0, the “Plant response rating, Surinam grass” value [19, 28] was 0 and the “Plant response rating, Surinam grass” value [19, 29] was 20. The “Plant response rating, Wild Oat” value [20, 28] was 0, the “Plant response rating, Wild Oat” value [20, 29] was 0 and the “Plant response rating, Pigweed” value [21, 28] was 100. The “Plant response rating, Pigweed” value [21, 29] was 100, the “Plant response rating, Blackgrass” value [22, 28] was 0 and the “Plant response rating, Blackgrass” value [22, 29] was 20. For the same compound, the “Plant response rating, Crabgrass” value [23, 28] was 50, the “Plant response rating, Crabgrass” value [23, 29] was 100 and the “Plant response rating, Cocklebur” value [24, 28] was 70. For the same compound, the “Plant response rating, Cocklebur” value [24, 29] was 70, the “Plant response rating, Corn” value [25, 28] was 0 and the “Plant response rating, Corn” value [25, 29] was 0. For the same compound, the “Plant response rating, Foxtail, Giant” value [26, 28] was 10, the “Plant response rating, Foxtail, Giant” value [26, 29] was 80 and the “Plant response rating, Morningglory” value [27, 28] was 40. For the same compound, the “Plant response rating, Morningglory” value [27, 29] was 90.
